The source made the active and inactive calls. The rule behind the calls is not given here.
Legend:
[1] = Metabolic stability in rat liver homogenate assessed as half life at 1 mg/ml incubated for 48 hrs by HPLC analysis; format: ADME, tissue-based
[2] = Metabolic stability in rat plasma assessed as compound remaining at 1 mg/ml measured after 48 hrs by HPLC analysis; format: ADME, cell-free; settings: read-out: Stability
[3] = Metabolic stability in rat liver homogenate assessed as compound remaining at 1 mg/ml measured after 48 hrs by HPLC analysis; format: ADME, tissue-based; settings: read-out: Stability
HCT-116 = assay: Antiproliferative activity against human HCT-116 cells overexpressing DPD assessed as reduction in cell viability incubated for 48 hrs by MTT assay; format: functional, cell-based; settings: HCT-116, 48 h
SW620/5-FU [4] = assay: Antiproliferative activity against human SW620/5-FU cells assessed as reduction in cell viability incubated for 48 hrs by MTT assay; format: functional, cell-based
SW620/5-FU [5] = assay: Downregulation of JMJD3 expression in human SW620/5-FU cells incubated for 12 hrs by Western blot analysis; format: functional, cell-based; settings: dose 2.5-20 µM, DDE = dose-dependent effect
HT-29 [6] = assay: Reversal of 5-FU resistance in human HT-29 cells assessed as fold reduction in 5-Fluorouracil IC50 at 2 uM incubated for 48 hrs; format: functional
HT-29 [7] = assay: Reversal of 5-FU resistance in human HT-29 cells assessed as fold reduction in 5-Fluorouracil IC50 at 5 uM incubated for 48 hrs; format: functional
SW620/5-FU [8] = assay: Antitumor activity against human SW620/5-FU cells xenografted in nude mouse assessed as tumor volume at 10 mg/kg/day, iv measured on day 1 in presence of 5-FU (reference value: 105 +/- 14 mm3); format: functional; settings: time 1 day
SW620/5-FU [9] = assay: Antitumor activity against human SW620/5-FU cells xenografted in nude mouse assessed as tumor growth inhibition at 5 mg/kg/day, iv in presence of 5-FU; format: functional; settings: read-out: TGI
Mus musculus = assay: In vivo inhibition of liver DPD expression in human SW620/5-FU cells xenografted in nude mouse at 1 to 10 mg/kg/day by Western blot analysis; format: functional, organism-based; settings: dose 1-10 mg/kg/day

With CCC(CC)CN1CCN(C(=O)Nc2cc(Oc3ccc(F)cc3)cc(Oc3ccc(C(=O)NC)cc3)c2)CC1 as the molecule, how does the half-life at 1 mg/ml [1] read?
The half-life at 1 mg/ml was greater than 48 h.

What about the remaining at 48 h, 1 mg/ml [2] of the same molecule?
The remaining at 48 h, 1 mg/ml was 93%.

And the remaining at 48 h, 1 mg/ml [3]?
The remaining at 48 h, 1 mg/ml was 68.9%.

What about the IC50 (HCT-116) of the same molecule?
Its IC50 is greater than 100 µM.

And the IC50 (SW620/5-FU [4])?
Its IC50 is greater than 100 µM.

What about the Activity (SW620/5-FU [5]) of the same molecule?
The Activity was “Dde”.

What about the “fold change (FC)” value (HT-29 [6]) of the same molecule?
The value was 66.

And the “fold change (FC)” value (HT-29 [7])?
The value was 127.

And the Activity (SW620/5-FU [8])?
Its Activity is 104 mm3.

And the inhibition in vivo at 5 mg/kg/day (SW620/5-FU [9])?
Its inhibition in vivo at 5 mg/kg/day is 66.8%.

What about the inhibition (Mus musculus) of the same molecule?
Its inhibition is “Active”.

From ChEMBL document CHEMBL5096216, “Rational Design, Synthesis, and Biological Evaluation of Novel S1PR2 Antagonists for Reversing 5-FU-Resistance in Colorectal Cancer” (J Med Chem, 2022)
